Experimental data: patent US10668283B2, “Brain stimulation tool configuration” (Elminda Ltd., priority 2014, dated 2020)

Assays:
Assay type in all cases: in vivo, human
[1] = test system: ADHD subject; assay: BNA pattern similarity from EEG data of ADHD subjects before and after MPH treatment
Text: The BNA patterns shown in FIGS. 6A-D are associated subject-specific BNA patterns constructed from EEG data recorded from a particular ADHD subject. The black dots in FIGS. 6A-D show the locations of the EEG electrodes. The color codes in these BNA patterns are the same as defined above. The subject-specific BNA patterns shown in FIGS. 6A-B describe the association of the ADHD subject to a group of untreated ADHD subjects, and the BNA patterns shown in FIGS. 6C-D describe the association of the ADHD subject to a group of ADHD subjects all treated with methylphenidate (MPH). The subject-specific BNA patterns shown in FIGS. 6A and 6C are based on EEG data recorded from the ADHD subject before any treatment, and subject-specific BNA patterns shown in FIGS. 6B and 6D are based on EEG data recorded from the ADHD subject following a treatment with MPH.
The baseline annotated BNA pattern constructed from the group of untreated ADHD subjects, and the baseline annotated BNA pattern constructed from the same group of subjects, but following treatment with MPH are shown in FIGS. 6E and 6F, respectively.
A BNA pattern similarity was calculated for each of the subject-specific BNA patterns shown in FIGS. 6A-D. The calculated similarity corresponding to the BNA pattern of FIG. 6A is 0.73, the calculated similarity corresponding to the BNA pattern of FIG. 6B is 0.19, the calculated similarity corresponding to the BNA pattern of FIG. 6C is 0.56, and the calculated similarity corresponding to the BNA pattern of FIG. 6D is 0.6.
The BNA patterns shown in FIGS. 7A-D were constructed from EEG data recorded from a different ADHD subject, which was also treated with MPH according to the same protocol as described above with respect to the responder subject of FIGS. 6A-D. The black dots in FIGS. 7A-D show the locations of the EEG electrodes, and the color codes in these BNA patterns is the same as defined above. Thus, the subject-specific BNA patterns shown in FIGS. 7A-B describe the association of the ADHD subject to a group of untreated ADHD subjects, and the BNA patterns shown in FIGS. 7C-D describe the association of the ADHD subject to a group of ADHD subjects all treated with methylphenidate (MPH). The subject-specific BNA patterns shown in FIGS. 7A and 7C are based on EEG data recorded from the ADHD subject before any treatment, and subject-specific BNA patterns shown in FIGS. 7B and 7D are based on EEG data recorded from the ADHD subject following a treatment with MPH.

[2] = test system: groups of subjects; assay: Group BNA patterns from EEG data recorded during a working memory test (cue/probe face matching); conditions: memorization and retrieval, versus placebo
Text: FIGS. 10A-H show group BNA patterns constructed from EEG data recorded from two groups of subjects during a working memory test. The black dots in FIGS. 10A-H show the locations of the EEG electrodes, and the color codes in these BNA patterns is the same as defined above. During the test, each subject of the group was asked to memorize an image of a human face (referred to as the “cue”). Two seconds later, the subject was again presented with an image of a human face (referred to as the “probe”) and was asked to determine whether the probe matches the cue.
The BNA patterns of the first group are shown in FIGS. 10A-D. FIGS. 10A and 10B are group BNA patterns constructed following treatment with a placebo (referred to below as placebo A), and FIGS. 10C and 10D are group BNA patterns constructed following treatment with a Scopolamine. The BNA patterns of the second group are shown in FIGS. 10E-H, where FIGS. 10E and 10F are group BNA patterns constructed following treatment with a placebo (referred to below as placebo B), and FIGS. 10G and 10H are BNA patterns constructed following treatment with a Ketamine.
The BNA pattern of FIGS. 10A, 10C, 10E and 10G were constructed from the data acquired during the time at which the cue was presented and are recognized by the present inventor as containing information pertaining to the memorization process in the brain (also known in the literature as “encoding”). The BNA patterns of FIGS. 10B, 10D, 10F and 10H were constructed from the data acquired during the time at which the probe was presented, and are recognized by the present inventor as containing information pertaining to the retrieval process in the brain. It is noted that the BNA patterns of FIGS. 10A-H describe differentiating activity networks. Thus, for example, the BNA pattern of FIG. 10A describes the brain activity during cue that most differentiated between placebo A and Scopolamine, and the BNA pattern of […] describes the brain activity during cue that most differentiated between placebo B and Ketamine.

[3] = test system: healthy volunteer subjects; assay: BNA pattern similarity from EEG data of healthy volunteers during an attention-related oddball task after scopolamine; clinical behavioral endpoint; conditions: for BNA pattern similarity to baseline BNA pattern of healthy subjects following placebo: following scopolamine
Text: FIGS. 8A-D show associated subject-specific BNA patterns constructed from EEG data recorded from two healthy volunteer subjects. The black dots in FIGS. 8A-D show the locations of the EEG electrodes, and the color codes in these BNA patterns are the same as defined above. The subject-specific BNA patterns shown in FIGS. 8A-D describe the association of the subjects to a group of healthy subjects following treatment with a placebo drug and while performing an attention task related oddball task.
FIGS. 8A and 8C are subject-specific BNA patterns constructed from EEG data collected from a first subject (FIG. 8A) and a second subject (FIG. 8C) following treatment with a placebo, and FIGS. 8B and 8D are subject-specific BNA patterns constructed from EEG data collected from the first subject (FIG. 8B) and the second subject (FIG. 8D) following treatment with a scopolamine drug. Scopolamine is an anticholinergic drug with inhibitory effect on M2-cholinergic receptors of excited type. It has an inhibitory effect on the cerebral cortex, typically inducing slight-anesthetic effect.
A BNA pattern similarity was calculated for each of the subject-specific BNA patterns shown in FIGS. 8A-D. The calculated similarities are 0.937, 0.079, 1.0 and 0.94, respectively. It is recognized by the present inventors that these similarity values indicate that the responsivity to scopolamine is high for the first subject (FIGS. 8A and 8B) and low for the second subject (FIGS. 8C and 8D).

[4] = test system: healthy volunteers; assay: Scopolamine induced cognitive impairment model: ΔBNA scores in Auditory Oddball Task against SEM of the normative database; conditions: scopolamine 0.4 mg, Novel stimulus, connectivity score; only 2 patients receiving placebo
Text: The task chosen for this study was the Auditory Oddball Task, but other tasks are not excluded from the scope of the present invention. FIG. 21 is a schematic representation of an Auditory Oddball Task used in this study. The task included 600 repetitive 1000 ms auditory stimulations of which 80% were 2000 Hz stimuli (Frequent—blue circles), 10% were 1000 Hz stimuli requiring a motor response (Target—red circles) and 10% were rare non-targets composed of various sounds (Novel—yellow star). The stimuli were separated by 1500 ms intervals. The sound was delivered through a headset at a sound pressure level of 70 dB.
A pharmacological model study included 13 healthy volunteers of both genders, Aged 18-45. The volunteers were subjected to 3 Consecutive BNA sessions were, 1 week apart. A first session was used as a baseline, one of the two other sessions included administration of scopolamine (0.4 mg), and the other of the two other sessions included administration of placebo. The second and third sessions were at random order, double blind. ΔBNA Score values (Baseline—Placebo and Baseline—Drug) were evaluated against SEM values.
Shown are Plots of the ΔBNA (Baseline—treatment) connectivity score values for the Novel response. Each symbol is a single subject, tested once following Drug and once following Placebo. […]

SMILES | BNA pattern similarity to the group of untreated ADHD subjects ([1]; different ADHD subject (FIG. 7B), following treatment with MPH, 0 before treatment) | BNA pattern similarity to the group of ADHD subjects treated with MPH ([1]; different ADHD subject (FIG. 7D), following treatment with MPH, 0.06 before treatment) | responsiveness of the subject to the treatment as indicated by similarity values ([1]; different ADHD subject (FIGS. 7A-D)) | BNA pattern similarity to the baseline BNA pattern for untreated ADHD group ([1]; first ADHD subject (FIG. 6B), following single dose treatment with MPH, 0.73 before treatment) | BNA pattern similarity to the baseline BNA pattern for the treated ADHD group ([1]; first ADHD subject (FIG. 6D), following single dose treatment with MPH, 0.56 before treatment) | responsiveness of the subject to the treatment as indicated by similarity values ([1]; first ADHD subject (FIGS. 6A-D)) | effect on central and frontal activation in group BNA pattern [2] | effect on fronto-parietal part / connectivity of group BNA pattern [2] | effect on right lateralization in group BNA pattern [2] | BNA pattern similarity to baseline BNA pattern of healthy subjects following placebo ([3]; first subject (FIG. 8B), 0.937 following placebo) | responsivity to scopolamine as indicated by similarity values ([3]; first subject (FIGS. 8A and 8B)) | decrease in behavioral endpoint (clinical observations) ([3]; first subject, following treatment with scopolamine) [%] | BNA pattern similarity to baseline BNA pattern of healthy subjects following placebo ([3]; second subject (FIG. 8D), 1.0 following placebo) | responsivity to scopolamine as indicated by similarity values ([3]; second subject (FIGS. 8C and 8D)) | change in behavioral endpoint (clinical observations) ([3]; second subject, following treatment with scopolamine) | patients with post-treatment BNA scores more than 2 SEM lower than the baseline score [4]
COC(=O)C(c1ccccc1)C1CCCCN1 (stereo not drawn) [MPH, methylphenidate] | 0 | 0 | not responsive to the treatment | 0.19 | 0.6 | responsive to the treatment | – | – | – | – | – | – | – | – | – | –
CNC1(c2ccccc2Cl)CCCCC1=O (stereo not drawn) [ketamine] | – | – | – | – | – | – | increased central and frontal activation | No significant change in the fronto-parietal part of the BNA pattern | decreased right lateralization | – | – | – | – | – | – | –
CN1[C@@H]2C[C@@H](OC(=O)[C@H](CO)c3ccccc3)C[C@H]1[C@@H]1O[C@@H]12 [scopolamine] | – | – | – | – | – | – | extensive compensatory central and frontal activation | low connectivity between frontal and parietal regions | – | 0.079 | high | 70 | 0.94 | low | no change in behavioral endpoint | Eight out of 13
